Our source for the IC50 values is patent US6750228B1, “Aromatic sulfone hydroxamic acid metalloprotease inhibitor” (priority 1997, dated 2004).

Molecules are shown by their SMILES.

Holding throughout (assay): biochemical
One assay concerns the target T1, MMP-2 (Homo sapiens, UniProt P08253).
T1 construct: made in house; provided by Dr. Gregory Goldberg, Washington University
T1 sequence (P08253 110-660): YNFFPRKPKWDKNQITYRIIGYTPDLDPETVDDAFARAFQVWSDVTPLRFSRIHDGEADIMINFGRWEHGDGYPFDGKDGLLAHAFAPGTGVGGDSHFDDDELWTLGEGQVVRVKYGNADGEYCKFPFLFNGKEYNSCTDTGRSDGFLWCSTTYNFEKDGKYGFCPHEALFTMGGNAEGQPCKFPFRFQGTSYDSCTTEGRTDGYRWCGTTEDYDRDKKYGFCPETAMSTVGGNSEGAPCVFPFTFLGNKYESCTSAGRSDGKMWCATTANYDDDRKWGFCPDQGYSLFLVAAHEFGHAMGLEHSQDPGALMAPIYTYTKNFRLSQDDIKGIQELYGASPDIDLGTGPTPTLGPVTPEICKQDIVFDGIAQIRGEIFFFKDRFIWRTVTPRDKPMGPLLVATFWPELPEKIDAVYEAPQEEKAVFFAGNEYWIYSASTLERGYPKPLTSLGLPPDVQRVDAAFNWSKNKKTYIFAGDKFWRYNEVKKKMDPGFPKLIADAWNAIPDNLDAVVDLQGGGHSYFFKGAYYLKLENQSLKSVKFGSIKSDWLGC
Conditions: recombinant human MMP-2, MCA peptide substrate 4 μM, pH 7.5, room temperature; read-out: MMP-2 IC50. An outline of the steps: (§1)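 APMA- or trypsin-activated human MMPs (MMP-1 from transfected HT-1080 cells, MMP-2 from transfected cells) preincubated with inhibitor in 1% DMSO at room temperature, then 4 μM MCA-Pro-Leu-Gly-Leu-Dpa-Ala-Arg-NH2 added in Tris/NaCl/CaCl2 buffer pH 7.5. IC50 from fluorescence reduction versus inhibitor concentration.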

For a further assay, the target named is T2, MMP-13 (Homo sapiens, UniProt P45452).
T2 construct: made in house; host or cells: baculovirus / insect cells
Conditions: recombinant human MMP-13, MCA peptide substrate 4 μM, pH 7.5, room temperature; read-out: MMP-13 IC50. An outline of the steps:
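APMA- or trypsin-activated enzymes were preincubated with inhibitor for 5 min at room temperature, then the fluorogenic substrate MCA-Pro-Leu-Gly-Leu-Dpa-Ala-Arg-NH2 was added to a final 4 μM.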

The next assay has as its target T3, MMP-1 (Homo sapiens, UniProt P03956).
T3 construct: made in house; host or cells: transfected HT-1080 cells (provided by Dr. Harold Welgus, Washington University)
T3 sequence (P03956 100-469): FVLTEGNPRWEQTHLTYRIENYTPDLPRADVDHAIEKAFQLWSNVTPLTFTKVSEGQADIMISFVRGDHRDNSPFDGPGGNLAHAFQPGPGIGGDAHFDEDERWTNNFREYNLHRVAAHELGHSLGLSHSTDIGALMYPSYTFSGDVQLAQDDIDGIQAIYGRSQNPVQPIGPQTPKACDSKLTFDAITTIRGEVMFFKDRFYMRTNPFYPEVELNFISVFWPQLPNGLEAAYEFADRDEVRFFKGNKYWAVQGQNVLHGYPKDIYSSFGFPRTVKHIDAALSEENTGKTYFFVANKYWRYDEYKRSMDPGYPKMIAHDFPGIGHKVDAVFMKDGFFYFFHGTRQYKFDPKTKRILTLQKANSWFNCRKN
Conditions: recombinant human MMP-1, MCA peptide substrate 4 μM, pH 7.5, room temperature; read-out: MMP-1 IC50. An outline of the steps:
as §1

As to `O=C(NO)C1(S(=O)(=O)c2ccc(N3CCC([S+]([O-])c4ccccc4)CC3)cc2)CCN(C2CC2)CC1` (stereo not drawn) [Example 459], the figures for the IC50 on MMP-2, at MMP-13 and on MMP-1 were 3100 nM, 136 nM and > 10000 nM, respectively.
In the case of `CC(C)N1CCC(C(=O)NO)(S(=O)(=O)c2ccc(N3CCC(SCc4ccc(OC(F)(F)F)cc4)CC3)cc2)CC1` [Example 462], the figures for the IC50 on MMP-2, on MMP-13 and on MMP-1 were 80 nM, 2.9 nM and > 10000 nM, respectively.
The corresponding values for `COc1cc2c(cc1OC)CN(c1ccc(S(=O)(=O)C3(C(=O)NO)CCN(C4CC4)CC3)cc1)CC2` [Example 464] are 400 nM, 120 nM and > 10000 nM.
For `O=C(Nc1cccnc1)OC1CCN(c2ccc(S(=O)(=O)C3(C(=O)NO)CCOCC3)cc2)CC1` [Example 465] the same measures were 370 nM, 80 nM and > 10000 nM.
For the molecule `O=C(NO)C1(S(=O)(=O)c2ccc(N3CC[C@@H](OCc4ccc(OC(F)(F)F)cc4)C3)cc2)CCOCC1` [Example 467], the results for the IC50 on MMP-2, at MMP-13 and at MMP-1 were 140 nM, 27 nM and > 10000 nM, respectively.
The corresponding values for `N#Cc1ccc(OC2CCN(c3ccc(S(=O)(=O)C4(C(=O)NO)CCOCC4)cc3)CC2)cc1` [Example 469] are 12 nM, 0.8 nM and > 10000 nM.
Turning to `CC(=O)c1ccc(OC2CCN(c3ccc(S(=O)(=O)C4(C(=O)NO)CCOCC4)cc3)CC2)cc1` [Example 470], the half-maximal inhibitory concentration (IC50) – broadly, the midpoint of a concentration-inhibition curve – at MMP-2 is 2000 nM; on MMP-13 it was 140 nM; on MMP-1, > 10000 nM.
The corresponding values for `CC(=O)c1ccc(OC2CCN(c3ccc(S(=O)(=O)C4(C(=O)NO)CCOCC4)cc3)CC2)c(Cl)c1` [Example 471] are > 10000 nM, 2400 nM and > 10000 nM.
For `CCOCc1ccc(COC2CCN(c3ccc(S(=O)(=O)C4(C(=O)NO)CCOCC4)cc3)CC2)cc1` [Example 472] the same measures were 200 nM, 4 nM and > 10000 nM.
The corresponding values for `O=C(NO)C1(S(=O)(=O)c2ccc(N3CCC(c4cccc5c4CCCC5)CC3)cc2)CCOCC1` [Example 473] are 3300 nM, 160 nM and > 10000 nM.
With `N#Cc1cc(F)cc(OC2CCN(c3ccc(S(=O)(=O)C4(C(=O)NO)CCOCC4)cc3)CC2)c1` [Example 474], the 50% inhibitory concentration (IC50) at MMP-2 was 300 nM; at MMP-13 it was 12.1 nM; at MMP-1 it was > 10000 nM.
On to `O=C(NO)C1(S(=O)(=O)c2ccc(N3CCC(n4cnc5ccccc54)CC3)cc2)CCOCC1` [Example 475], for which the half-maximal inhibitory concentration (IC50) at MMP-2 is 500 nM; at MMP-13 it was 27.1 nM; at MMP-1, > 10000 nM.
For `CCNCc1ccc(COC2CCN(c3ccc(S(=O)(=O)C4(C(=O)NO)CCOCC4)cc3)CC2)cc1` [Example 476] the same measures were 140 nM, 25.4 nM and > 10000 nM.
The corresponding values for `CCCCCOc1ccc(COC2CCN(c3ccc(S(=O)(=O)C4(C(=O)NO)CCOCC4)cc3)CC2)cc1` [Example 477] are 160 nM, 11.3 nM and > 10000 nM.
The corresponding values for `CC(C)CCOc1ccc(COC2CCN(c3ccc(S(=O)(=O)C4(C(=O)NO)CCOCC4)cc3)CC2)cc1` [Example 478] are 306 nM, 16.4 nM and > 10000 nM.
With `O=C(NO)C1(S(=O)(=O)c2ccc(N3CCC(Oc4ccc(Br)cc4)CC3)cc2)CCOCC1` [Example 479], the IC50 on MMP-2 is 60 nM; on MMP-13, 5 nM; at MMP-1, > 10000 nM.
The corresponding values for `O=C(NO)C1(S(=O)(=O)c2ccc(N3CCC(Oc4ccc(OC(F)(F)F)cc4)CC3)cc2)CCOCC1` [Example 480] are 155 nM, 18.6 nM and > 10000 nM.
Take `O=C(NO)C1(S(=O)(=O)c2ccc(N3CCC(Oc4ccc([N+](=O)[O-])cc4C(F)(F)F)CC3)cc2)CCOCC1` [Example 481]: the IC50 was 1400 nM on MMP-2, 50 nM on MMP-13 and > 10000 nM on MMP-1.
For `CC(C)c1cccc(OC2CCN(c3ccc(S(=O)(=O)C4(C(=O)NO)CCOCC4)cc3)CC2)c1` [Example 482] the same measures were 4 nM, 6 nM and > 10000 nM.
The corresponding values for `O=C(NO)C1(S(=O)(=O)c2ccc(N3CCC(Oc4ccc5c(c4)CCCC5)CC3)cc2)CCOCC1` [Example 483] are 10.6 nM, 32.6 nM and > 10000 nM.
The corresponding values for `O=C(NO)C1(S(=O)(=O)c2ccc(N3CCc4ccccc4C3)cc2)CCOCC1` [Example 484] are 100 nM, 240 nM and > 10000 nM.
Take `Cc1cccc(OC2CCN(c3ccc(S(=O)(=O)C4(C(=O)NO)CCOCC4)cc3)CC2)c1` [Example 485]: the half-maximal inhibitory concentration (IC50) on MMP-2 is 4.2 nM; at MMP-13, 8 nM; on MMP-1 it was > 10000 nM.
The corresponding values for `CC1CCCCN1c1ccc(S(=O)(=O)C2(C(=O)NO)CCOCC2)cc1` (stereo not drawn) [Example 486] are 4000 nM, 5400 nM and > 10000 nM.
For `CC1CN(c2ccc(S(=O)(=O)C3(C(=O)NO)CCOCC3)cc2)CCN1c1ccccc1` (stereo not drawn) [Example 487] the same measures were 800 nM, 140 nM and > 10000 nM.
For `O=C(NO)C1(S(=O)(=O)c2ccc(N3CCN(C4CCCC4)CC3)cc2)CCOCC1` [Example 488] the same measures were 370 nM, 140 nM and > 10000 nM.
Consider `O=C(NO)C1(S(=O)(=O)c2ccc(N3CCN(C4CCCCC4)CC3)cc2)CCOCC1` [Example 489], for which the half-maximal inhibitory concentration (IC50) was 1900 nM on MMP-2, 770 nM at MMP-13 and > 10000 nM at MMP-1.
The corresponding values for `Cc1cccc(N2CCN(c3ccc(S(=O)(=O)C4(C(=O)NO)CCOCC4)cc3)CC2)c1C` [Example 490] are 3000 nM, 61 nM and > 10000 nM.
For `O=C(NO)C1(S(=O)(=O)c2ccc(N3CC4CC3CN4c3cccc(F)c3)cc2)CCOCC1` (stereo not drawn) [Example 491] the same measures were > 10000 nM, > 10000 nM and > 10000 nM.
The corresponding values for `O=C(NO)C1(S(=O)(=O)c2ccc(N3CC4CC3CO4)cc2)CCOCC1` (stereo not drawn) [Example 492] are > 10000 nM, 6100 nM and > 10000 nM.
For `O=C(NO)C1(S(=O)(=O)c2ccc(N3CC4CC3CN4Cc3ccccc3)cc2)CCOCC1` (stereo not drawn) [Example 493], the half-maximal inhibitory concentration (IC50) at MMP-2, on MMP-13 and on MMP-1 was > 10000 nM in each case.
Regarding `Cc1ccccc1N1CC2CC1CN2c1ccc(S(=O)(=O)C2(C(=O)NO)CCOCC2)cc1` (stereo not drawn) [Example 494], the IC50 at MMP-2 was 3300 nM; at MMP-13, 650 nM; on MMP-1, > 10000 nM.
For `CC1CCN(c2ccc(S(=O)(=O)C3(C(=O)NO)CCOCC3)cc2)CC1` [Example 495] the same measures were 21.1 nM, 14.5 nM and > 10000 nM.
Consider `CC1CCCN(c2ccc(S(=O)(=O)C3(C(=O)NO)CCOCC3)cc2)C1` (stereo not drawn) [Example 496], for which the 50% inhibitory concentration (IC50) at MMP-2 is 200 nM; at MMP-13, 30.7 nM; on MMP-1 it was > 10000 nM.
As for `CN(Cc1cccnc1)C(=O)C1CCN(c2ccc(S(=O)(=O)C3(C(=O)NO)CCOCC3)cc2)CC1` [Example 497], the results for the concentration for half-maximal inhibition (IC50) at MMP-2, at MMP-13 and at MMP-1 were 8000 nM, 50 nM and > 10000 nM, respectively.
The corresponding values for `O=C(NO)C1(S(=O)(=O)c2ccc(N3CCC(CCOCc4ccccc4)CC3)cc2)CCOCC1` [Example 499] are 19.3 nM, 0.9 nM and > 10000 nM.
